These results are taken from ChEMBL document CHEMBL5257079, “Discovery of FXR/PPARγ dual partial agonist” (Bioorg Med Chem, 2023).

Usually half-life stands for the time needed for the level to fall by half in the phase considered. Broadly, the IC50 is the concentration that inhibits the measured activity by half.

Data set [1] concerns the target T1, Bile acid receptor (Homo sapiens) (UniProt Q96RI1).
T1 sequence (whole entry): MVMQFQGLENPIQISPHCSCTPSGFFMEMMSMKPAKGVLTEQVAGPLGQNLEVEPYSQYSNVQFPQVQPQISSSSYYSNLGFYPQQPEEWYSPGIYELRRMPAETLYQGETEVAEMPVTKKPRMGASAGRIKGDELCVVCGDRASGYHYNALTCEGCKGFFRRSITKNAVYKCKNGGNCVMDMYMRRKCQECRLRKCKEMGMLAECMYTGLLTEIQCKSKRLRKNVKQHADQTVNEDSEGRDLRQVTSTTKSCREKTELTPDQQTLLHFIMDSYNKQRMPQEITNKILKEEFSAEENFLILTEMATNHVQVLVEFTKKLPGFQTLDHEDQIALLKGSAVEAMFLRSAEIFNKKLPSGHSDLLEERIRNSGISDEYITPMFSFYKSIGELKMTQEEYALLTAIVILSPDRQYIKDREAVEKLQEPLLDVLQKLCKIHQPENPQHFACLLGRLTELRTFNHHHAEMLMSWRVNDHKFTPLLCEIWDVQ
Briefly: Partial agonist activity at FXR in human Huh-7 cells assessed as reduction in CDCA-induced BSEP gene expression at 10 uM by RT-PCR analysis. The class given is cell-based. The following applies: filed as partial agonist.

Data set [2] can be described thus: Metabolic stability in mouse liver microsomes assessed as half life. The class given is ADME, Microsome. For orientation: Liver microsomes are vesicles of endoplasmic reticulum, rich in cytochrome P450 enzymes.
The target in data set [3] is T1, Bile acid receptor (Homo sapiens). Kind of data set: Partial agonist activity at FXR in human Huh-7 cells assessed as reduction in CDCA-induced SHP gene expression at 10 uM by RT-PCR analysis. Type of data set: cell-based. The following applies: filed as partial agonist.
Data set [4] shares this target. Briefly: Antagonist activity at FXR-LBD-GST (unknown origin) in presence of GW4064 relative to control. The arrangement: scale not given: the % may be the effect or the level left.
A short description of data set [5]: Metabolic stability in mouse liver microsomes assessed as parent compound remaining after 30 mins. The class given is ADME, Microsome. The following applies: read-out: Stability.
Data set [6] addresses T1, Bile acid receptor (Homo sapiens). Kind of data set: Partial agonist activity at FXR in human Huh-7 cells assessed as reduction in CDCA-induced FAS gene expression at 10 uM by RT-PCR analysis. Type of data set: cell-based. The following applies: filed as partial agonist.
Data set [7] concerns the target T2, Retinoic acid receptor alpha (Homo sapiens) (UniProt P10276).
T2 sequence (whole entry): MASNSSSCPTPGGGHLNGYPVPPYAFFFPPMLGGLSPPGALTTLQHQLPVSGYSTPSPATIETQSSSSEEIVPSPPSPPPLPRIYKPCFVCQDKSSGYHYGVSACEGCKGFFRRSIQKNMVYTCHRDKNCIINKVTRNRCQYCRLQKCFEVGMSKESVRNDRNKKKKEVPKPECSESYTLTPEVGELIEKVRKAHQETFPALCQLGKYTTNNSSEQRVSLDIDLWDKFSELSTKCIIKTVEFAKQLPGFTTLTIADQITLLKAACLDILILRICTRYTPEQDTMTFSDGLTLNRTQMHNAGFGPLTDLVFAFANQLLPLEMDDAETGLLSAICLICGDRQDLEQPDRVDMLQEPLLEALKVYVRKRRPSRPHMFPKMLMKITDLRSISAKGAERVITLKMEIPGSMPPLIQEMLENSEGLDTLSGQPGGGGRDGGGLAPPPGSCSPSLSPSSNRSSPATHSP
Kind of data set: Activation of RARalpha (unknown origin) at 10 uM.

The target of data set [8] is T1, Bile acid receptor (Homo sapiens). Briefly: Partial agonist activity at FXR in human Huh-7 cells assessed as reduction in CDCA-induced OSTalpha gene expression at 10 uM by RT-PCR analysis. Type of data set: cell-based. The following applies: filed as partial agonist.
Data set [9] deals with T3, Peroxisome proliferator-activated receptor delta (Homo sapiens) (UniProt Q03181).
T3 sequence (whole entry): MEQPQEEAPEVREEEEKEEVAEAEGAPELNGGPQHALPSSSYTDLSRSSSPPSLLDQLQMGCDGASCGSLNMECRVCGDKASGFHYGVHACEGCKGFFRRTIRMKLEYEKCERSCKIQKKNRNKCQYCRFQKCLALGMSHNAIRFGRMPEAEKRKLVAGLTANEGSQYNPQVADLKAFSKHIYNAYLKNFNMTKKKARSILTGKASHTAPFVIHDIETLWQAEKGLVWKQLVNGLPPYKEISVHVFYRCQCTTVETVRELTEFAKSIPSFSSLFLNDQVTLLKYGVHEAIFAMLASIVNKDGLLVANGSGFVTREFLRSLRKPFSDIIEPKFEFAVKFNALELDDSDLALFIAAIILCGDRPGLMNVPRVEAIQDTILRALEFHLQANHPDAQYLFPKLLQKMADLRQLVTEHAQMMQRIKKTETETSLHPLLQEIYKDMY
Kind of data set: Activation of PPARdelta (unknown origin) at 10 uM.

For data set [10], the target named is T4, G-protein coupled bile acid receptor 1 (Homo sapiens) (UniProt Q8TDU6).
T4 sequence (whole entry): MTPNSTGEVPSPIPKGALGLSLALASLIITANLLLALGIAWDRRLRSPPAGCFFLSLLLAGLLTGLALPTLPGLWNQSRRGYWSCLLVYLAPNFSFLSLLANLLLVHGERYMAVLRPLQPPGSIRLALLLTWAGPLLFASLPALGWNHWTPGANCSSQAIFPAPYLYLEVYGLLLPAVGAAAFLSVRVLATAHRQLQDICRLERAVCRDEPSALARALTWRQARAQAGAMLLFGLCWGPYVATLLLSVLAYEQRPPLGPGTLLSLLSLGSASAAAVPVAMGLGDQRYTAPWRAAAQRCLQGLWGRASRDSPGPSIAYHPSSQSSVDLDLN
Kind of data set: Activation of TGR5 (unknown origin) at 10 uM.

For data set [11], the target named is T1, Bile acid receptor (Homo sapiens). Briefly: Activation of FXR (unknown origin) at 10 uM. The following applies: filed as activator.
Data set [12] has as its target T5, Vitamin D3 receptor (Homo sapiens) (UniProt P11473).
T5 sequence (whole entry): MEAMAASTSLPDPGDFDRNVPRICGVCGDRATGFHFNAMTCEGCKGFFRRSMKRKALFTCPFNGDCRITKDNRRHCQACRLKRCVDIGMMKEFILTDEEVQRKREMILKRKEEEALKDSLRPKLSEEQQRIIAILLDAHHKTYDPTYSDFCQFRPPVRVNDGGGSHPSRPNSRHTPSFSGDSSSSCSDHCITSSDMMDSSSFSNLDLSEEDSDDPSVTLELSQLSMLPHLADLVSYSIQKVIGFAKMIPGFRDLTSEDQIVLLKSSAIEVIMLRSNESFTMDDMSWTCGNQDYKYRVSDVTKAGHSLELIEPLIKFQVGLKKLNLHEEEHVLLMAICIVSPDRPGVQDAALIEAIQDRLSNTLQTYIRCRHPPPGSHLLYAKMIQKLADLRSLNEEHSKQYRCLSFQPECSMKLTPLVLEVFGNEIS
Kind of data set: Activation of VDR (unknown origin) at 10 uM.

For data set [13], the target named is T6, Bile acid receptor (Homo sapiens, UniProt Q96RI1).
T6 sequence (Q96RI1 whole entry): T1 sequence (whole entry)
Kind of data set: Antagonist activity at FXR-LBD-GST (unknown origin) in presence of GW4064.

For data set [14], the target named is T1, Bile acid receptor (Homo sapiens). Briefly: Partial agonist activity at FXR in human Huh-7 cells assessed as reduction in CDCA-induced SREBP gene expression at 10 uM by RT-PCR analysis. The class given is cell-based. The following applies: filed as partial agonist.

Structures are written as SMILES. Activity calls are given as the source filed them.

As to `CC(C)(C)c1ccc(-n2cnc3c(NC(=O)Cc4ccc(C(=O)O)cc4)cccc32)cc1`, the result in [1], in [3], in data set [6], in data set [8], in [11] and in data set [14] was Active. For the same compound, the half-life in data set [2] amounted to 57 min. In [4], the Activity was 30%. Moreover, the remaining at 0.5 h in data set [5] was 69.5%. For the same compound, the result in [7], in [9], in data set [10] and in data set [12] was inactive. Further, in [13], the concentration for half-maximal inhibition (IC50) is 20.7 µM.
